From patent US9982005B2, “Macrolides and methods of their preparation and use” (President and Fellows of Harvard College, priority 2013, dated 2018)
Values after ≈ are worked out from the molar mass of the structure shown. Where two headings read alike, the source gives them in different places.

Key:
Assay type in all cases: cell-based
E. coli strains = assay: MIC against E. coli strains (Table M7); conditions: for MIC: Escherichia coli, ATCC25922, E. coli ATCC 25922
From the text: (§1) We have collected MIC data for a total of 50 novel macrolides that this platform has produced against over 21 unique strains of B. subtilis, E. coli, S. aureus, S. pneumoniae, and H. influenzae, including several multidrug-resistant strains, with a special focus on macrolide resistant mechanisms (vide supra). Azithromycin was included as a control macrolide. CLSI standard procedures for broth dilution MIC determination were used. […] These genotypes can be constitutive or inducible. The finding that C4-epi (unnatural) isomers of the “azaketolide” macrolide class have enhanced activities relative to C4 natural isomers is very exciting.

S. aureus strains = assay: MIC against S. aureus strains (Table M7); conditions: for MIC: Staphylococcus aureus
From the text: as §1

S. pneumoniae strains = assay: MIC against S. pneumoniae strains (Tables M7, M8); conditions: for MIC: Streptococcus pneumoniae
From the text: CLSI standard procedures for broth dilution MIC determination were used. […] These genotypes can be constitutive or inducible.

E. faecalis strains = assay: MIC against E. faecalis strains (Table M8); conditions: for MIC: Enterococcus faecalis, E. faecalis 29212
A. baumannii strains = assay: MIC against A. baumannii strains (Table M8); conditions: for MIC: Acinetobacter baumannii, BAA747, A. baumannii BAA747-1
K. pneumoniae strains = assay: MIC against K. pneumoniae strains (Table M8); conditions: for MIC: Klebsiella pneumoniae, K. pneumoniae 10031
H. influenzae strains = assay: MIC against H. influenzae strains (Table M8); conditions: for MIC: Haemophilus influenzae
From the text: as §1

[1] = ATCC29213, S. aureus ATCC 29213, read-out: MIC S. aureus (ATCC 29213)
[2] = S. aureus 183, read-out: MIC S. aureus (183)
[3] = S. aureus 506, read-out: MIC S. aureus (506)
[4] = S. aureus 1708, read-out: MIC S. aureus (1708)
[5] = USA300, S. aureus USA300, read-out: MIC S. aureus (USA300)
[6] = S. pneumoniae 160, read-out: MIC S. pneumonae (160)
[7] = S. pneumoniae 1509, read-out: MIC S. pneumoniae (1509)
[8] = S. pneumoniae 1533, read-out: MIC S. pneumoniae (1533)
[9] = S. pneumoniae 1537, read-out: MIC S. pneumoniae (1537)
[10] = S. pneumoniae 49619, read-out: MIC S. pneumoniae (49619)
[11] = H. influenzae 49247, read-out: MIC H. influenzae (49247)
[12] = H. influenzae 49766, read-out: MIC H. influenzae (49766)

Row | SMILES | MIC (E. coli strains) | MIC (S. aureus strains; [1]) | MIC (S. aureus strains; [2]) | MIC (S. aureus strains; [3]) | MIC (S. aureus strains; [4]) | MIC (S. aureus strains; [5]) | MIC (S. pneumoniae strains; [6]) | MIC (S. pneumoniae strains; [7]) | MIC (S. pneumoniae strains; [8]) | MIC (S. pneumoniae strains; [9]) | MIC (S. pneumoniae strains; [10]) | MIC (E. faecalis strains) | MIC (A. baumannii strains) | MIC (K. pneumoniae strains) | MIC (H. influenzae strains; [11]) | MIC (H. influenzae strains; [12]) | also measured
1 | CCC1OC(=O)C(Cc2cn[nH]c2)C(=O)C(C)C(OC2OC(C)CC(N(C)C)C2O)C(C)(OCC=Cc2cnc3ccccc3c2)CC(C)CNC(C)C2NC(=O)OC12C (mixture of isomers) [FSM-21264] | – | – | – | – | – | – | – | – | – | – | – | – | – | – | – | – | MIC E. coli (ATCC 25922) (E. coli strains; E. coli ATCC 25922): >32 µg/mL; MIC S. aureus (183) (S. aureus strains; S. aureus 183): >32 µg/mL; MIC S. aureus (506) (S. aureus strains; S. aureus 506): >32 µg/mL; MIC S. aureus (1708) (S. aureus strains; S. aureus 1708): >32 µg/mL; MIC S. aureus (ATCC 29213) (S. aureus strains; S. aureus ATCC 29213): >32 µg/mL; MIC S. aureus (USA300) (S. aureus strains; S. aureus USA300): >32 µg/mL; MIC S. pneumonae (160) (S. pneumoniae strains; S. pneumoniae 160): 4 µg/mL; MIC S. pneumoniae (1509) (S. pneumoniae strains; S. pneumoniae 1509): >32 µg/mL; MIC S. pneumoniae (1533) (S. pneumoniae strains; S. pneumoniae 1533): >32 µg/mL; MIC S. pneumoniae (1537) (S. pneumoniae strains; S. pneumoniae 1537): >32 µg/mL; MIC S. pneumoniae (49619) (S. pneumoniae strains; S. pneumoniae 49619): 2 µg/mL; MIC E. faecalis (29212) (E. faecalis strains): >32 µg/mL; MIC A. baumannii (BAA747-1) (A. baumannii strains; A. baumannii BAA747-1): >32 µg/mL; MIC K. pneumoniae (10031) (K. pneumoniae strains): >32 µg/mL; MIC H. influenzae (49247) (H. influenzae strains; H. influenzae 49247): 8 µg/mL; MIC H. influenzae (49766) (H. influenzae strains; H. influenzae 49766): >32 µg/mL
2 | CC[C@H]1OC(=O)[C@H](Cc2cn[nH]c2)C(=O)[C@H](C)[C@@H](O[C@@H]2OC(C)CC(N(C)C)C2O)[C@](C)(OC)C[C@@H](C)CN[C@H](C)[C@H]2N(CCCCn3cc(-c4cccc(N)c4)nn3)C(=O)O[C@]12C (stereo partly drawn) [FSM-56192] | > 32 µg/mL | > 32 µg/mL | > 32 µg/mL | > 32 µg/mL | > 32 µg/mL | > 32 µg/mL | 8 µg/mL (≈ 8.95 µM) | > 32 µg/mL | > 32 µg/mL | > 32 µg/mL | 2 µg/mL (≈ 2.24 µM) | 32 µg/mL (≈ 35.8 µM) | > 32 µg/mL | 16 µg/mL (≈ 17.9 µM) | 8 µg/mL (≈ 8.95 µM) | 32 µg/mL (≈ 35.8 µM) | –
3 | CC[C@H]1OC(=O)[C@H](CC(=O)O)C(=O)[C@H](C)[C@@H](O[C@@H]2OC(C)CC(N(C)C)C2O)[C@](C)(OC)C[C@@H](C)CN[C@H](C)[C@H]2N(CCCCn3cc(-c4cccc(N)c4)nn3)C(=O)O[C@]12C (stereo partly drawn) [FSM-56185] | > 32 µg/mL | > 32 µg/mL | > 32 µg/mL | > 32 µg/mL | > 32 µg/mL | > 32 µg/mL | > 32 µg/mL | > 32 µg/mL | > 32 µg/mL | > 32 µg/mL | > 32 µg/mL | > 32 µg/mL | > 32 µg/mL | > 32 µg/mL | > 32 µg/mL | > 32 µg/mL | –
4 | CC[C@H]1OC(=O)[C@H](C)C(=O)[C@H](C)[C@@H](O[C@@H]2OC(C)CC(N(C)C)C2O)[C@](C)(OC)C[C@@H](C)CN[C@H](Cc2ccccc2)[C@H]2N(CCCCn3cc(-c4cccc(N)c4)nn3)C(=O)O[C@]12C (stereo partly drawn) [FSM-60353] | 32 µg/mL (≈ 35.4 µM) | 0.5 µg/mL (≈ 0.553 µM) | > 32 µg/mL | > 32 µg/mL | 0.5 µg/mL (≈ 0.553 µM) | 0.5 µg/mL (≈ 0.553 µM) | ≤ 0.0625 µg/mL | 1 µg/mL (≈ 1.11 µM) | 32 µg/mL (≈ 35.4 µM) | 32 µg/mL (≈ 35.4 µM) | ≤ 0.0625 µg/mL | 0.25 µg/mL (≈ 0.276 µM) | 32 µg/mL (≈ 35.4 µM) | 8 µg/mL (≈ 8.85 µM) | 2 µg/mL (≈ 2.21 µM) | 8 µg/mL (≈ 8.85 µM) | –

More lines, main results first:

Row | MIC (E. coli strains) | MIC (S. aureus strains; [1]) | MIC (S. aureus strains; [2]) | MIC (S. aureus strains; [3]) | MIC (S. aureus strains; [4]) | MIC (S. aureus strains; [5]) | MIC (S. pneumoniae strains; [6]) | MIC (S. pneumoniae strains; [7]) | MIC (S. pneumoniae strains; [8]) | MIC (S. pneumoniae strains; [9]) | MIC (S. pneumoniae strains; [10]) | MIC (E. faecalis strains) | MIC (A. baumannii strains) | MIC (K. pneumoniae strains) | MIC (H. influenzae strains; [11]) | MIC (H. influenzae strains; [12]) | SMILES | also measured
5 | 32 µg/mL (≈ 37.3 µM) | > 32 µg/mL | > 32 µg/mL | > 32 µg/mL | > 32 µg/mL | > 32 µg/mL | 4 µg/mL (≈ 4.66 µM) | > 32 µg/mL | > 32 µg/mL | > 32 µg/mL | 1 µg/mL (≈ 1.17 µM) | 16 µg/mL (≈ 18.6 µM) | > 32 µg/mL | 8 µg/mL (≈ 9.32 µM) | 8 µg/mL (≈ 9.32 µM) | 16 µg/mL (≈ 18.6 µM) | CC[C@H]1OC(=O)[C@H](C)C(=O)[C@H](C)[C@@H](O[C@@H]2OC(C)CC(N(C)C)C2O)[C@](CCO)(OC)C[C@@H](C)CN[C@H](C)[C@H]2N(CCCCn3cc(-c4cccc(N)c4)nn3)C(=O)O[C@]12C (stereo partly drawn) [FSM-21422] | –
6 | 16 µg/mL (≈ 19 µM) | 2 µg/mL (≈ 2.38 µM) | > 32 µg/mL | > 32 µg/mL | 2 µg/mL (≈ 2.38 µM) | 2 µg/mL (≈ 2.38 µM) | 0.25 µg/mL (≈ 0.297 µM) | 4 µg/mL (≈ 4.75 µM) | > 32 µg/mL | > 32 µg/mL | 0.125 µg/mL (≈ 0.148 µM) | 0.5 µg/mL (≈ 0.594 µM) | 16 µg/mL (≈ 19 µM) | 4 µg/mL (≈ 4.75 µM) | 2 µg/mL (≈ 2.38 µM) | 4 µg/mL (≈ 4.75 µM) | CC[C@H]1OC(=O)[C@H](C)C(=O)[C@H](C)[C@@H](O[C@@H]2OC(C)CC(N(C)C)C2O)[C@](C)(OC)C[C@@H](C)CCN[C@H](C)[C@H]2N(CCCCn3cc(-c4cccc(N)c4)nn3)C(=O)O[C@]12C (stereo partly drawn) [FSM-21397] | –
